US20250049871A1, “PHARMACEUTICAL COMBINATION FOR TREATING OR PREVENTING EPILEPSY AND THE USE THEREOF” (priority 2023, published 2025)

Experiments:
Format in all cases: in vivo, Sprague-Dawley rats
[1] = system: KA-induced seizures; test: kainic acid (KA)-induced epilepsy model in animals, epileptic behavior by Racine scale; conditions: for Death: dead/total rats; for Seizure %: share of rats with seizures; for Seizure stage: then KA 15 mg/kg i.p., Racine scale within 4 hours
Experimental: Male Sprague-Dawley rats (SD rat, 150-200 g) were purchased from BioLASCO (Taiwan) and bred in Fu Jen Laboratory Animal Center. All animal experiments were approved by the IACUC of Fu Jen Catholic University. According to the 3R principles, all experiments were performed to minimize animal suffering and use the minimum number of animals necessary to produce reliable results.
The antiepileptic effect of the birch sap extract was evaluated using kainic acid (KA)-induced epilepsy model in animals. KA is an analogue of glutamate, and injection of KA into rats will increase the release of glutamate and overactivate glutamate receptors, resulting in progressive limbic seizures in rats. This phenomenon leads to increased calcium ions in nerve cells, oxidative stress, and loss of mitochondrial function, resulting in the death of nerve cells in many areas of the brain, especially in the cerebral cortex and hippocampus. In addition, KA-induced neuronal cell death is related to glial cell activation and inflammatory response caused by inflammatory molecules, such as interleukin-1β (IL-1β), interleukin-6 (IL-6), tumor necrosis factor-α (TNF-α), high mobility group Box 1 (HMGB1), interleukin 1 receptor 1 (IL-1R1), and Toll-like receptor-4 (TLR-4).
Epileptic behavioral expressions were analyzed within 4 hours after intraperitoneal injection of KA in rats.
Sprague-Dawley rats were divided into the following groups according to the administration of different test substances: • 1. Negative control group: normal saline • 2. KA group: 15 mg/kg/i.p./single dose of kainic acid (KA) • 3. Low-dose group of birch sap extract: 6 mg/kg of birch sap extract • 4. High-dose group of birch sap extract: 10 mg/kg of birch sap extract • 5. High-dose group of antiepileptic drug: 100 mg/kg of carbamazepine (CBZ) • 6. Antiepileptic pharmaceutical combination group: 6 mg/kg of birch sap extract and 50 mg/kg of CBZ • 7. Low-dose group of antiepileptic drug: 50 mg/kg of CBZ
The control group, birch sap extract groups, antiepileptic drug groups, and antiepileptic pharmaceutical combination group were fed with normal saline, birch sap extract and/or CBZ through feeding tubes at regular intervals every day. One week later, except for the negative control group, rats in each group were intraperitoneally injected with KA (15 mg/kg/i.p./single dose), and the dose of KA injection was based on the previous study. The epileptic behavior of rats was analyzed according to Racine scale (1972) within 4 hours after intraperitoneal injection of KA.

[2] = system: cerebral cortex and hippocampus CA1/CA3 nerve cells; test: Nissl staining of brain tissue after KA injection; conditions: pretreatment; three days after KA 15 mg/kg i.p.; p<0.05 vs KA group
Experimental: (§1) Continuing from Example 3, the experimental animals in each group were sacrificed three days after intraperitoneal injection of KA (15 mg/kg), and the brain tissues were taken out for sectioning and other relevant experimental analysis.

[3] = system: CA1/CA3 degenerative cells in the cerebral cortex and hippocampus; test: Fluoro-Jade B (FJB) staining of brain tissue after KA injection; conditions: pretreatment; three days after KA 15 mg/kg i.p.; p<0.05 vs KA group
Experimental: as §1
This phenomenon can also be reduced by the pretreatment with the birch sap extract and betulin (p<0.05; FIGS. 4A and 4B).

SMILES	Death ([1]; CBZ 50 mg/kg + KA)	Latency to first seizure ([1]; CBZ 50 mg/kg + KA, mean ± SEM) [min]	Seizure % ([1]; CBZ 50 mg/kg + KA) [%]	Seizure stage ([1]; CBZ 50 mg/kg oral daily for one week, mean ± SEM)	Latency to first seizure ([1]; CBZ 100 mg/kg + KA) [min]	Death ([1]; CBZ 100 mg/kg + KA)	Seizure % ([1]; CBZ 100 mg/kg + KA) [%]	Seizure stage ([1]; CBZ 100 mg/kg oral daily for one week, mean ± SEM)	time and severity of seizures compared with the KA group ([1]; low-dose group of antiepileptic drug, CBZ 50 mg/kg)	number of neurocytes in cerebral cortex and hippocampus CA1/CA3 (Nissl staining) [2]	number of CA1/CA3 degenerative cells in the cerebral cortex and hippocampus (FJB staining) [3]
NC(=O)N1c2ccccc2C=Cc2ccccc21 [CBZ, carbamazepine]	0/3	89 ± 17	66	3.6 ± 0.3	140	1/11	10	0.9 ± 0.5	not statistically different	–	–
C=C(C)[C@@H]1CC[C@]2(CO)CC[C@]3(C)[C@H](CC[C@@H]4[C@@]5(C)CC[C@H](O)C(C)(C)[C@@H]5CC[C@]43C)[C@@H]12 [betulin]	–	–	–	–	–	–	–	–	–	reduce the decrease in the number of neurocytes	reduced
